According to patent US20040126882A1, “Regulatable, catalytically active nucleic acids” (priority 2000, published 2004):

Experiments:
3MeX2P6 = assay: Effector specificity of 3MeX2P6 in vitro and in vivo
Protocol: In vitro splicing assays. The assays were preformed by heating the RNA (500 nM) in H2O to 70° C. for 3 min then transferring to ice for 1 min. […] GTP (50 μM) was added to the remaining reaction (5 μl total volume) to start the splicing reaction. The reaction was incubated at 37° C. for 30 min and then terminated with stop dye (5 μl). The reactions were heated to 70° C. for 3 min and 5 μl was analyzed on an 8% denaturing polyacrylamide gel. The gel was dried, exposed to a phosphor screen and analyzed using a Molecular Dynamics Phosphorimager (Sunnyvale, Calif.). In vivo growth curves.

C600ThyA::Kan^R cells = test system: C600ThyA::Kan^R cells
Protocol: In vivo growth curves. Cells grown overnight in LB were diluted 1:100 in MM containing either theophylline, caffeine, 3-methylxanthine or no effector, and analyzed on a Microbiology Workstation Bioscreen C (Labsystems, Inc., Franklin, Mass.).

[1] = test system: Cyt 18-dependent population; assay: Specificity of activation of Cyt18-dependent ribozymes by proteins; assay type: biochemical
Protocol: (§1) Protein inactivation. Standard ligation assays were performed as described above, but in the presence of protein samples that had been pre-treated as follows. Cyt18 protein was denatured by heating for 10 min at 70° C. or by the addition of 6% SDS (0.7% SDS in ligation reaction). Lysozyme was heated 10 min at 100° C. or incubated 10 min at room temperature in the presence of 2 mM DTT (0.3 mM DTT final reaction) without inactivating the protein. The protein was successfully inactivated by heating for […] at 70° C. in the presence of 2 mM DTT. Ligation reactions were performed with 1.3 μM protein in 15 μl reactions incubated 5 min at 25° C.

[2] = test system: lysozyme-dependent clones; assay: Specificity of activation of lysozyme-dependent ribozymes by proteins; assay type: biochemical; settings: lysozyme both reduced and denatured
Protocol: as §1

lysozyme [3] = biological target: T1, lysozyme (Gallus gallus, UniProt P00698); assay: Filter binding assay with lysozyme; parameters: species or system hen; settings: read-out: Kd of anti-lysozyme aptamer
Protocol: Binding assays. Binding assays were performed in triplicate by combining I pmol of [^32P]-body-labeled RNA, 20 pmol 18.90a, and varying amounts of target protein (1 pmol to 5 nmol) in 50 μl of ligation buffer. After incubation at room temperature for 30 min, the mixture was drawn under vacuum through a series of nitrocellulose and nylon filters and washed with 150 μl of ligation buffer. The ratio of protein-bound RNA versus free RNA was determined by analyzing the counts retained on the nitrocellulose filter versus the counts on the nylon filter.

lysozyme [4] = biological target: T1, lysozyme; assay: Competition assay, competitor RNA against lysozyme activation of lys11-2; assay type: biochemical, hen; settings: 3 μM competitor RNA, 2 μM lysozyme
Protocol: Competition assays. Ligation assays were performed as described above, using 10 pmol of [^32P]-body-labeled ribozyme (cyt7-2 or lys11-2; […]) and 20 pmol effector oligonucleotide (2 μM). The denatured and annealed RNA mixture was combined with ligation buffer, 20 pmol protein (Cyt18, lysozyme, or water in the case of (−) protein samples; 2 μM), and 30 pmol of denatured and annealed competitor RNA (3 μM). Competitor RNAs are as follows:
Where N=(A, G, C, U), and tRNA (from Yeast; Gibco BRL, Gaithersburg, Md.). […] Cyt18 reactions were incubated 5 min at 25° C. and lysozyme reactions were incubated 10 min. Reactions were terminated by the addition of 45 μl of SDS/urea stop mix (75 mM EDTA, 80% formamide, saturated urea, saturated SDS, 0.05% bromophenol blue, 0.05% xylene cyanol) and analyzed on 8% polyacrylamide gels containing 0.1% SDS as above.

Rev-dependent ligase = assay type: biochemical
Protocol: Ligation assays. Ligation assays were performed as described hereinabove.

Cn1cnc2[nH]c(=O)[nH]c(=O)c21 [7-methylxanthine]
responsiveness of 3MeX2P6 variants to effector (3MeX2P6): nor were they responsive

Cn1c(=O)c2[nH]cnc2n(C)c1=O [theophylline]
concentration causing a decrease in growth of cells containing the parental td intron (toxic to cells) (C600ThyA::Kan^R cells; E. coli): greater than 0.5 mM | concentration that progressively decreases growth of cells with theophylline-dependent introns (C600ThyA::Kan^R cells; E. coli): above 2 mM | responsiveness of 3MeX2P6 variants to effector (3MeX2P6): no longer responsive

Cn1c(=O)[nH]c2nc[nH]c2c1=O [1-methylxanthine]
responsiveness of 3MeX2P6 variants to effector (3MeX2P6): nor were they responsive

lysozyme: hen egg white lysozyme
activation of Cyt18-dependent ribozyme by non-cognate protein [1]: No activation | activation of catalysis by inactivated lysozyme [2]: unable to activate

Cn1c(=O)c2c(ncn2C)n(C)c1=O [caffeine]
activation of growth of cells with td gene divided by Th2P6 by effector (C600ThyA::Kan^R cells): not activated | responsiveness of 3MeX2P6 variants to effector (3MeX2P6): nor were they responsive

cl: high affinity anti-lysozyme aptamer, SEQ ID NO:13 (GCGACTGGACATCACGAG; chemistry not given here)
Kd (lysozyme [3]): 31 nM | reduction of lysozyme activation of lys11-2 by competitor RNA (lysozyme [4]): reduced activation to background levels

O=c1[nH]cnc2nc[nH]c12 [hypoxanthine]
responsiveness of 3MeX2P6 variants to effector (3MeX2P6): nor were they responsive

O=c1[nH]c(=O)c2[nH]cnc2[nH]1 [xanthine]
responsiveness of 3MeX2P6 variants to effector (3MeX2P6): nor were they responsive

Cn1cnc2c1c(=O)[nH]c(=O)n2C [theobromine]
responsiveness of 3MeX2P6 variants to effector (3MeX2P6): nor were they responsive

N=C(N)NCCC[C@H](N)C(=O)O [arginine]
activation of the Rev-dependent ligase (Rev-dependent ligase): Activation was observed only with HIV Tat peptide

Cn1c(=O)[nH]c(=O)c2[nH]cnc21 [3-methylxanthine]
responsiveness of 3MeX2P6 variants to effector (3MeX2P6): responsive

Cn1c(=O)c2[nH]c(=O)[nH]c2n(C)c1=O [1,3-dimethyl urilic acid]
responsiveness of 3MeX2P6 variants to effector (3MeX2P6): nor were they responsive

E. coli tryptophanyl tRNA synthetase: non-cognate protein
activation of Cyt18-dependent ribozyme by non-cognate protein [1]: No activation

MS2 coat protein: non-cognate protein
activation of Cyt18-dependent ribozyme by non-cognate protein [1]: No activation
